≈ marks a conversion by molar mass, not a printed value. Calls of active or inactive are those of the source. The calls are words filed in the database; no cut-off is given here.
How the values were obtained:
Staphylococcus aureus = test: Antibacterial activity against Staphylococcus aureus ATCC 25365 assessed as growth inhibition after 18 hr by broth microdilution method; format: functional; conditions: ATCC 25365, 18 h
Corynebacterium = test: Antibacterial activity against Corynebacterium ATCC 29355 assessed as growth inhibition after 18 hr by broth microdilution method; format: functional; conditions: ATCC 29355, 18 h
[1] = tested on: Mycobacterium tuberculosis; test: Antimycobacterial activity against Mycobacterium tuberculosis H37Rv assessed as growth inhibition after 21 days by broth dilution assay; format: functional
Pseudomonas aeruginosa = test: Antibacterial activity against Pseudomonas aeruginosa ATCC 25619 assessed as growth inhibition after 18 hr by broth microdilution method; format: functional; conditions: ATCC 25619, 18 h
Escherichia coli = test: Antibacterial activity against Escherichia coli MTCC 1089 assessed as growth inhibition after 18 hr by broth microdilution method; format: functional; conditions: MTCC 1089, 18 h
[2] = Selectivity index, ratio of IC50 for african green monkey Vero cells to MIC for Mycobacterium tuberculosis H37Rv; format: toxicity, cell-based; conditions: read-out: Selectivity Index
Vero = test: Cytotoxicity against Chlorocebus aethiops (African green monkey) Vero cells assessed as inhibition of cell viability after 96 hr by MTT assay; format: cell-based; conditions: Chlorocebus sabaeus

Row | Compound | MIC (Staphylococcus aureus) | MIC (Corynebacterium) | MIC ([1]; 504 h) | MIC (Pseudomonas aeruginosa) | MIC (Escherichia coli) | MIC [1] | selectivity ratio [2] | IC50 (Vero)
1 | O=C(CSc1nnc(N2CCN(c3cc4c(cc3F)c(=O)c(C(=O)O)cn4C3CC3)CC2)s1)c1ccc(F)cc1 | 8 µg/mL (≈ 13.7 µM) | 4 µg/mL (≈ 6.85 µM) | 5 µg/mL (≈ 8.57 µM) | 32 µg/mL (≈ 54.8 µM) | 16 µg/mL (≈ 27.4 µM) |  |  | 
2 | CCn1cc(C(=O)O)c(=O)c2cc(F)c(N3CCN(c4nnc(SCC(=O)c5ccc(C)cc5)s4)CC3)cc21 | 8 µg/mL (≈ 14.1 µM) | 4 µg/mL (≈ 7.05 µM) |  | > 64 µg/mL | > 64 µg/mL | inactive |  | 
3 | CO[C@H]1/C=C/O[C@@]2(C)Oc3c(C)c(O)c4c(O)c(c(/C=N/N5CCN(C)CC5)c(O)c4c3C2=O)NC(=O)/C(C)=C\C=C\[C@H](C)[C@H](O)[C@@H](C)[C@@H](O)[C@@H](C)[C@H](OC(C)=O)[C@@H]1C [RIFAMPIN] |  |  | 1 µg/mL (≈ 1.22 µM) |  |  |  | > 10 | > 10 µg/mL
4 | O=C(CSc1nnc(N2CCN(c3cc4c(cc3F)c(=O)c(C(=O)O)cn4C3CC3)CC2)s1)c1ccc(Br)cc1 | 8 µg/mL (≈ 12.4 µM) | 4 µg/mL (≈ 6.21 µM) | 2 µg/mL (≈ 3.1 µM) | > 64 µg/mL | 16 µg/mL (≈ 24.8 µM) |  | 3 | 6 µg/mL (≈ 9.31 µM)
5 | CCn1cc(C(=O)O)c(=O)c2cc(F)c(N3CCN(c4nnc(SCC(=O)c5ccccc5)s4)CC3)cc21 | 32 µg/mL (≈ 57.8 µM) | 16 µg/mL (≈ 28.9 µM) |  | > 64 µg/mL | > 64 µg/mL | inactive |  | 
6 | CCn1cc(C(=O)O)c(=O)c2cc(F)c(N3CCNCC3)cc21 [NORFLOXACIN] | 2 µg/mL (≈ 6.26 µM) | 2 µg/mL (≈ 6.26 µM) |  | 4 µg/mL (≈ 12.5 µM) | 2 µg/mL (≈ 6.26 µM) |  |  | 
7 | CCn1cc(C(=O)O)c(=O)c2cc(F)c(N3CCN(c4nnc(SCC(=O)c5ccc(F)cc5)s4)CC3)cc21 | 4 µg/mL (≈ 7 µM) | 2 µg/mL (≈ 3.5 µM) | 5 µg/mL (≈ 8.75 µM) | 32 µg/mL (≈ 56 µM) | > 64 µg/mL |  |  | 
8 | O=C(CSc1nnc(N2CCN(c3cc4c(cc3F)c(=O)c(C(=O)O)cn4C3CC3)CC2)s1)c1ccc([N+](=O)[O-])cc1 | 1 µg/mL (≈ 1.64 µM) | 0.5 µg/mL (≈ 0.819 µM) | 0.5 µg/mL (≈ 0.819 µM) | > 64 µg/mL | 32 µg/mL (≈ 52.4 µM) |  | > 12.2 | > 6.1 µg/mL
9 | NNC(=O)c1ccncc1 [ISONIAZID] |  |  | 1.5 µg/mL (≈ 10.9 µM) |  |  |  |  | > 12 µg/mL
10 | O=C(CSc1nnc(N2CCN(c3cc4c(cc3F)c(=O)c(C(=O)O)cn4C3CC3)CC2)s1)c1ccc(Cl)cc1 | 4 µg/mL (≈ 6.67 µM) | 2 µg/mL (≈ 3.33 µM) | 1 µg/mL (≈ 1.67 µM) | > 64 µg/mL | 16 µg/mL (≈ 26.7 µM) |  | 3 | 3 µg/mL (≈ 5 µM)
11 | COc1ccc(C(=O)CSc2nnc(N3CCN(c4cc5c(cc4F)c(=O)c(C(=O)O)cn5C4CC4)CC3)s2)cc1 | 2 µg/mL (≈ 3.36 µM) | 1 µg/mL (≈ 1.68 µM) | 10 µg/mL (≈ 16.8 µM) | > 64 µg/mL | 32 µg/mL (≈ 53.7 µM) |  |  | 
12 | Cc1ccc(C(=O)CSc2nnc(N3CCN(c4cc5c(cc4F)c(=O)c(C(=O)O)cn5C4CC4)CC3)s2)cc1 | 8 µg/mL (≈ 13.8 µM) | 4 µg/mL (≈ 6.9 µM) |  | > 64 µg/mL | 16 µg/mL (≈ 27.6 µM) | inactive |  | 
13 | CCn1cc(C(=O)O)c(=O)c2cc(F)c(N3CCN(c4nnc(SCC(=O)c5ccc(Br)cc5)s4)CC3)cc21 | 8 µg/mL (≈ 12.6 µM) | 4 µg/mL (≈ 6.32 µM) | 2.5 µg/mL (≈ 3.95 µM) | > 64 µg/mL | 32 µg/mL (≈ 50.6 µM) |  | 2 | 5 µg/mL (≈ 7.9 µM)
14 | O=C(O)c1cn(C2CC2)c2cc(N3CCNCC3)c(F)cc2c1=O [CIPROFLOXACIN] | 2 µg/mL (≈ 6.04 µM) |  |  | 4 µg/mL (≈ 12.1 µM) |  |  |  | 
15 | CCn1cc(C(=O)O)c(=O)c2cc(F)c(N3CCN(c4nnc(SCC(=O)c5ccc(OC)cc5)s4)CC3)cc21 | 2 µg/mL (≈ 3.43 µM) | 1 µg/mL (≈ 1.71 µM) | 10 µg/mL (≈ 17.1 µM) | > 64 µg/mL | > 64 µg/mL |  |  | 
16 | CCn1cc(C(=O)O)c(=O)c2cc(F)c(N3CCN(c4nnc(SCC(=O)c5ccc([N+](=O)[O-])cc5)s4)CC3)cc21 | 2 µg/mL (≈ 3.34 µM) | 1 µg/mL (≈ 1.67 µM) | 1 µg/mL (≈ 1.67 µM) | > 64 µg/mL | 16 µg/mL (≈ 26.7 µM) |  | > 10.2 | > 10.2 µg/mL
17 | O=C(CSc1nnc(N2CCN(c3cc4c(cc3F)c(=O)c(C(=O)O)cn4C3CC3)CC2)s1)c1ccccc1 | 16 µg/mL (≈ 28.3 µM) | 16 µg/mL (≈ 28.3 µM) |  | > 64 µg/mL | 32 µg/mL (≈ 56.6 µM) | inactive |  | 
18 | CCn1cc(C(=O)O)c(=O)c2cc(F)c(N3CCN(c4nnc(SCC(=O)c5ccc(Cl)cc5)s4)CC3)cc21 | 4 µg/mL (≈ 6.8 µM) | 2 µg/mL (≈ 3.4 µM) | 1.5 µg/mL (≈ 2.55 µM) | > 64 µg/mL | 32 µg/mL (≈ 54.4 µM) |  | 2.67 | 4 µg/mL (≈ 6.8 µM)
